# Results: patent US6207701A, “Urokinase inhibitors” (Abbott Laboratories, priority 2000, dated 2001)
# Structures can show the parent of a compound that is named as a salt.
# Tests used:
# [1] = target: T1, urokinase enzyme Abbokinase (Homo sapiens, UniProt P00749); assay: Determination of Urokinase Inhibition (chromogenic substrate S-2444); type: biochemical; details: substrate S-2444 at 200 μM, pH 7.4, enzyme 2-3 nM, 405 nm, 15 minutes; read-out: Inhibitory Potency Against Urokinase, IC50
# T1 construct: purchased Abbott Laboratories, Abbott Park, Ill
# Description: Distributor of Chromogenix) at 200 μM. […] Four concentrations were chosen, then 5 μl of each were diluted to a total assay volume of 200 μl. […] Several vials were reconstituted as directed on the vial, aliquoted and stored frozen. The enzyme was further diluted in assay buffer and 10 μl was used in the assay. Enzyme concentration in the assay was 2-3 nM. […] The Spectromax® calculated the reaction rates which were used to calculate percent inhibition of the compounds of this invention versus the reaction rate of the enzyme in the absence of any inhibitor. The Ki 's of the inhibitors were calculated from the percent inhibition and previously established Km.
# [2] = tested on: angiogenesis/capillary network formation; details: in vitro; Alliegro and Glaser, J. Cell Biol. 115: 402a (1991); cited from earlier work
Compound,IC50 [1] [µM],inhibit angiogenesis/capillary network formation [2]
"CC(C)Oc1cccc(NC(=O)c2ccc3cc(C(=N)N)sc3c2)c1 [Example 4, 2-[amino(imino)methyl]-N-(3-isopropoxyphenyl)-1-benzothiophene-6-carboxamide]",0.68,–
"N=C(N)c1cc2ccc(C(=O)Nc3ccccc3)cc2s1 [Example 3, 2-[amino(imino)methyl]-N-phenyl-1-benzothiophene-6-carboxamide]",3.22,–
"N=C(N)c1cc2c(Nc3nccs3)cccc2s1 [Example 2, 4-(1,3-thiazol-2-ylamino)-1-benzothiophene-2-carboximidamide trifluoroacetic acid salt]",0.192,–
N=C(N)NC(=O)c1nc(Cl)c(N)nc1N [Amiloride],–,angiogenesis/capillary network formation in vitro
